Laboratory results taken from patent publication US20260216347A1, “Substituted Imidazo-Based Compounds as Ligand Directed Degraders of IRAK3” (Celgene Corporation, priority 2022, published 2026).

What was measured:
IRAK3 [1] = target: T1, IRAK3 (Homo sapiens, UniProt Q9Y616); test: IRAK3 biochemical binding assay (LanthaScreen Eu Kinase Binding, TR-FRET)
T1 construct: IRAK Endogenous HTRF Degradation Assay; endogenous in cells
T1 sequence (Q9Y616 1-596): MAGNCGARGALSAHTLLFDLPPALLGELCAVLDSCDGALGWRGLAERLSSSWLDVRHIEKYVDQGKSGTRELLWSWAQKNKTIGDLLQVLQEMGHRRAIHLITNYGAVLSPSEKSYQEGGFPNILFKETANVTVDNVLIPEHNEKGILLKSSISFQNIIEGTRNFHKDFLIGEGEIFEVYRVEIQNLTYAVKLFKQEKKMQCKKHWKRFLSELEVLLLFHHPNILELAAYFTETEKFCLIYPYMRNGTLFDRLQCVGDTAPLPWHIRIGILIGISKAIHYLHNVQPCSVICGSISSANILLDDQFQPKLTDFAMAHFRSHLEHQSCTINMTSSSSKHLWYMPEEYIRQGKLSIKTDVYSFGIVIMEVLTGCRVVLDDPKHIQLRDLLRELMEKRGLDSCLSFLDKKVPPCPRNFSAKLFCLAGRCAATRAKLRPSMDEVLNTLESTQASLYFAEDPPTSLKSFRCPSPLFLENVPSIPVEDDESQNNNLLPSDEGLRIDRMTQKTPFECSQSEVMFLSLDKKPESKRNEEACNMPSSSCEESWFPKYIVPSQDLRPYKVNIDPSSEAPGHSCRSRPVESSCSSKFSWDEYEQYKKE
Procedure, shortened: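 TR-FRET tracer-displacement binding with 10 nM IRAK3, 2 nM Eu-anti-GST antibody and 10 nM tracer in 50 mM HEPES pH 7.4, MgCl2, 1 mM EGTA, 0.01% Brij-35. Compounds in 3-fold dilutions, 1 h at room temperature. 665/615 nm ratio gave % inhibition; IC50 and Hill slope from dose-response fit.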

IRAK3 [2] = target: T1, IRAK3; test: IRAK endogenous HTRF degradation assay (Total-IRAK3 HTRF kit); assay type: cell-based; details: overnight incubation, lowest percentage of protein remaining
Procedure, shortened: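 Cells (~50 k) incubated overnight with 3-fold serial dilutions of compound, then lysed; total IRAK3 read by HTRF (665/615 nm ratio ×10,000), normalized to DMSO as 100%. EC50 from four-parameter logistic fit; Dmax = 100 − Ymin (lowest % protein remaining); DC50 = concentration giving 50% degradation.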

IC50 (IRAK3 [1]) [nM]	IRAK3 HTRF degradation Ymin (IRAK3 [2]) [%]	Compound
1.7	64	Cc1cc(-c2cnc(Nc3cnn(C4CCN(CCN5CCN(c6ccc([C@]7(C)CCC(=O)NC7=O)cc6)CC5)CC4)c3)c3nccn23)c(F)cc1F [Compound 76, (S)-3-(4-(4-(2-(4-(4-((5-(2,4-difluoro-5-methylphenyl)imdazo [1,2-a]pyrazin-8-yl)amino)-1H-pyrazol-1-yl)piperidin-1-yl)ethyl)piperazin-1-yl)phenyl)-3-methylpiperidine-2,6-dione]
2	8.3	Cc1cc(-c2cnc(Nc3cnn(C4CCN(CCN5CCN(c6ccc([C@@]7(C)CCC(=O)NC7=O)cc6)CC5)CC4)c3)c3nccn23)c(F)cc1F [Compound 77, (R)-3-(4-(4-(2-(4-(4-((5-(2,4-difluoro-5-methylphenyl)imdazo [1,2-a]pyrazin-8-yl)amino)-1H-pyrazol-1-yl)piperidin-1-yl)ethyl)piperazin-1-yl)phenyl)-3-methylpiperidine-2,6-dione]
140	11	O=C1CCC(c2ccc(N3CCN(CCN4CCC(n5cc(Nc6ncc(-c7cccc(F)c7)n7ccnc67)cn5)CC4)CC3)cc2)C(=O)N1 (stereo not shown) [Compound 80, 3-(4-(4-(2-(4-(4-((5-(3-fluorophenyl)imidazo [1,2-a]pyrazin-8-yl)amino)-1H-pyrazol-1-yl)piperidin-1-yl)ethyl)piperazin-1-yl)phenyl) piperidine-2,6-dione]
10	7.8	Cc1cc(-c2cnc(Nc3cnn([C@H]4CC[C@H](CCN5CCN(c6ccc([C@@]7(C)CCC(=O)NC7=O)cc6)CC5)CC4)c3)c3nccn23)c(F)cc1F [Compound 81, (R)-3-(4-(4-(2-((trans)-4-(4-((5-(2,4-difluoro-5-methylphenyl)imidazo[1,2-a]pyrazin-8-yl)amino)-1H-pyrazol-1-yl)cyclohexyl)ethyl)piperazin-1-yl)phenyl)-3-methylpiperidine-2,6-dione]
17	40	Cc1cc(-c2cnc(Nc3cnn([C@H]4CC[C@H](CCN5CCN(c6ccc([C@]7(C)CCC(=O)NC7=O)cc6)CC5)CC4)c3)c3nccn23)c(F)cc1F [Compound 82, (S)-3-(4-(4-(2-((trans)-4-(4-((5-(2,4-difluoro-5-methylphenyl)imidazo[1,2-a]pyrazin-8-yl)amino)-1H-pyrazol-1-yl)cyclohexyl)ethyl)piperazin-1-yl)phenyl)-3-methylpiperidine-2,6-dione]

Second part, the compound before the results:

Compound	IC50 (IRAK3 [1]) [nM]	IRAK3 HTRF degradation Ymin (IRAK3 [2]) [%]
Cc1cc(-c2cnc(Nc3cnn(C4CCN(CCN5CCN(c6cccc(C7CCC(=O)NC7=O)c6)CC5)CC4)c3)c3nccn23)c(F)cc1F (stereo not shown) [Compound 31, 3-(3-(4-(2-(4-(4-((5-(2,4-difluoro-5-methylphenyl)imdazo [1,2-a]pyrazin-8-yl)amino)-1H-pyrazol-1-yl)piperidin-1-yl)ethyl)piperazin-1-yl)phenyl) piperidine-2,6-dione]	6.1	40
Cc1cc(-c2cnc(Nc3cnn(C4CCN(CCN5CCN(c6ccc(C7CCC(=O)NC7=O)cc6)CC5)CC4)c3)c3nccn23)ccc1F (stereo not shown) [Compound 33, 3-(4-(4-(2-(4-(4-((5-(4-fluoro-3-methylphenyl)imdazo [1,2-a]pyrazin-8-yl)amino)-1H-pyrazol-1-yl)piperidin-1-yl)ethyl)piperazin-1-yl)phenyl) piperidine-2,6-dione]	12	13
Cc1cc(-c2cnc(Nc3cnn([C@H]4CCN(CCN5CCN(c6ccc(C7CCC(=O)NC7=O)cc6)C[C@H]5C)[C@@H](C)C4)c3)c3nccn23)c(F)cc1F (stereo partly drawn) [Compound 35, 3-(4-((R)-4-(2-((2S,4S)-4-(4-((5-(2,4-difluoro-5-methylphenyl)imdazo [1,2-a]pyrazin-8-yl)amino)-1H-pyrazol-1-yl)-2-methylpiperidin-1-yl)ethyl)-3-methylpiperazin-1-yl)phenyl) piperidine-2,6-dione]	0.65	7.6
Cc1cc(-c2cnc(Nc3cnn([C@H]4CCN(CCN5CCN(c6ccc(C7CCC(=O)NC7=O)cc6)CC5)C[C@@H]4F)c3)c3nccn23)c(F)cc1F (stereo partly drawn) [Compound 72, 3-(4-(4-(2-((3S,4S)-4-(4-((5-(2,4-difluoro-5-methylphenyl)imdazo [1,2-a]pyrazin-8-yl)amino)-1H-pyrazol-1-yl)-3-fluoropiperidin-1-yl)ethyl)piperazin-1-yl)phenyl) piperidine-2,6-dione]	1.2	8.3
O=C1CCC(c2ccc(N3CCN(CCN4CCC(n5cc(Nc6ncc(-c7ccc(F)cc7)n7ccnc67)cn5)CC4)CC3)cc2)C(=O)N1 (stereo not shown) [Compound 74, 3-(4-(4-(2-(4-(4-((5-(4-fluorophenyl)imidazo [1,2-a]pyrazin-8-yl)amino)-1H-pyrazol-1-yl)piperidin-1-yl)ethyl)piperazin-1-yl)phenyl) piperidine-2,6-dione]	5.6	9.8
O=C1CCC(c2ccc(N3CCN(CCN4CCC(n5cc(Nc6ncc(-c7ccccc7F)n7ccnc67)cn5)CC4)CC3)cc2)C(=O)N1 (stereo not shown) [Compound 75, 3-(4-(4-(2-(4-(4-((5-(2-fluorophenyl)imidazo [1,2-a]pyrazin-8-yl)amino)-1H-pyrazol-1-yl)piperidin-1-yl)ethyl)piperazin-1-yl)phenyl) piperidine-2,6-dione]	14	9.8
